According to patent US8470772B2, “Leptin agonist and methods of use” (Temple University—Of The Commonwealth System of Higher …, priority 2008, dated 2013):
Non-standard residues stand in square brackets, D forms with d. No end group written: not given here. *: point of attachment. βGlc = OC[C@H]1O[C@@H](*)[C@H](O)[C@@H](O)[C@@H]1O; Tyr(3,5-I2) = N[C@@H](Cc1cc(I)c(O)c(I)c1)C(=O)O; Dap = NC[C@H](N)C(=O)O

Assays:
ObR extracellular domain = biological target: T1, ObR extracellular domain (Homo sapiens, UniProt P48357); assay: Dot-blot and ELISA-type solid-phase binding assay; details: dot-blot, Western-blot or ELISA; 10 and 20 μg peptide load in ELISA
T1 construct: human IgG Fc-conjugated ObR extracellular domain (R&D Systems); purchased R&D Systems
T1 sequence (P48357 22-839 limits assumed): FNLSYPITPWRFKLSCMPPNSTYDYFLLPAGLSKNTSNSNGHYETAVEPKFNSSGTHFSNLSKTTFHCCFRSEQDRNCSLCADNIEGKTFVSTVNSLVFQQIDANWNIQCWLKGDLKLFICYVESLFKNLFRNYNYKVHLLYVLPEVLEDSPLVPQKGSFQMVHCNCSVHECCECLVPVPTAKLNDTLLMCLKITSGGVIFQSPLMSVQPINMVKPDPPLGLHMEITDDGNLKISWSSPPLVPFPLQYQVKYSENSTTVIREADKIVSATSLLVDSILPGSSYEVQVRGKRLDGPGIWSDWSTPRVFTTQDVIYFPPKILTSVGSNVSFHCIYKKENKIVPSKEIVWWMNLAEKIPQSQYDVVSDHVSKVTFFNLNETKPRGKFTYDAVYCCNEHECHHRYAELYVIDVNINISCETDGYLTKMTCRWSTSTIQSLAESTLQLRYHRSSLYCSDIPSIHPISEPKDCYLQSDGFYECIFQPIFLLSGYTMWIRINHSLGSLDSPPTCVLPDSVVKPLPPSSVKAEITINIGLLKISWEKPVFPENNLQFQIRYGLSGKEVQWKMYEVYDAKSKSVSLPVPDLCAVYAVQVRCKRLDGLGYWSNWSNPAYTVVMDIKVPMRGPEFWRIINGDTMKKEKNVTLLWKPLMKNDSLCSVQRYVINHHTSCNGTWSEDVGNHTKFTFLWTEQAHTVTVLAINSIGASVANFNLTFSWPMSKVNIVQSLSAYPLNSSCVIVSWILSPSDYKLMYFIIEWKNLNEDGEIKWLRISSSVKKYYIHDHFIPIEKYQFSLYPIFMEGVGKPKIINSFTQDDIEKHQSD
Description: For dot-blot and ELISA assays, the leptin fragments were dissolved in electroblot transfer buffer (25 mM Tris and […] buffer containing 20% methanol) and were applied to either a nitrocellulose membrane or dried upon ELISA plates (Otvos, L., Jr., and Szendrei, G. I. (1996) Enzyme-linked immunosorbent assay of peptides. In: Neuropeptide Protocols (G. B. Irvine and C. H. Williams, eds.). Humana Press, Totowa, N.J., pp. 269-275). The solid surfaces were blocked with 5% BSA in a PBS-0.5% Tween 20 buffer (PBST) for 3 hours at room temperature and were subsequently incubated with 10 μg/mL solution of human IgG Fc-conjugated ObR extracellular domain (R&D Systems) dissolved in Tris-buffered saline-0.1% Tween 20 buffer (TBST) containing 1% bovine serum albumin (BSA) for 1 hour. A monoclonal goat antibody (Santa Cruz Biotechnology), specific for the N-terminus of human ObR, was added to the assay mixture, followed by addition of a horseradish peroxidase(HRP)-conjugated anti-goat IgG donkey antibody for the dot-blot assay, and HRP-conjugated anti-goat Fc mouse antibody for ELISA assay (used at a 1:15,000 dilution in PBST and 1% BSA). Between reagents, the solid surfaces were washed extensively with PBST. After washing with PBST, the membrane was treated with a chemiluminescence luminol oxidizer (NEN) for 1 min. The resultant chemiluminescence was exposed to a X-Omat blue XB-1 film (Kodak) for 10 seconds, and the exposed film was developed. The ELISA was developed using an HRP ELISA kit including tetramethylbenzidine as a substrate and sulfuric acid as a stop solution. Optical absorbance values were read at 490 nm using a microplate reader.

ERK1/2 = assay: ObR signaling assay: ERK1/2 phosphorylation in MCF-7 cells by Western blotting; type: cell-based, human
Description: MCF-7 cells were grown and treated with E1Free peptide and full-sized leptin as described for the cell stimulation assays elsewhere herein. Cells were lysed with SDS sample buffer and scraped off of the plate. DNA was sheared using sonication, after which the sample was heated to 95° C., centrifuged and, subjected to SDS-PAGE. After gel electrophoresis, the proteins were transferred to nitrocellulose membrane. The membrane was incubated with 5% milk as blocking buffer, followed by addition of rabbit polyclonal antibodies to phosphorylated or total ERK1/2 MAP kinases (1:500 dilution in TBST and 2% milk, Cell Signaling Technology). The expression of a constitutive Hsp72/74 protein was probed with mouse monoclonal antibodies to control protein loading (1:5,000 dilution in TBST and 3% milk Calbiochem). After extensive washing, the blots incubated with HRP-conjugated secondary anti-rabbit (1:1,000 in TBST and 2% milk, Santa Cruz Biotechnology) and anti-mouse (1:10,000 TBST and 3% milk, Amersham Biosciences) IgG antibodies produced in goats, and developed as described for the dot-blot above.

[1] = In vivo biodistribution of DY675-labeled peptide by fluorescence imaging; details: intraperitoneal, female Balb/c mice, up to 65 minutes
Description: E1Free peptide was co-synthesized with the near-infrared absorbing fluorescent dye DY675 and the resultant labeled peptide was purified by RP-HPLC. Forty microgams of the peptide was injected intraperiotoneally into shaved and isoflurane anesthesized female Balb/c mice. For imaging of the biodistribution of the peptide, the animals were placed into a fluorescence microscope chamber under continuous isoflurane exposure. Fluorescence exposure pictures were taken with an IVIS microscope set to a 695 nm emission wavelength. Images were obtained once a minute for the first ten minutes after peptide addition and every five minutes afterwards, until a 65 minute stop point was reached.

[2] = system: ovariectomised (OVX) ewes; assay: Voluntary food intake in animals with icv infusion; type: in vivo
Description: This experiment was conducted using ovariectomised (OVX) ewes (n=4/group: 55 kg). Ovariectomy removes cyclic effects of ovarian steroids, which affect sensitivity to leptin. The experiments were performed in an isolated room with an ambient temperature range of 17-22° C. […] peptide was administered to animals by way of Silastic cannulae introduced into the lateral cerebral ventricle (H8) for intracerebroventricular (icv) infusion. For infusion, pyrogen-free leptin peptide was dissolved in 0.1 mM HCl and diluted in artificial cerebrospinal fluid (aCSF) to a concentration of 10 μg/100 μl. All infusions were initiated at 0900 hours and control animals received an infusion of aCSF 100 μl/hour.

Tyr(I2)-Serβ(Glc)-Thr-Glu-Va1-Va1-Ala-Leu-Ser-Arg-Leu-Dap(Ac) ([Tyr(3,5-I2)]S(βGlc)TEVVALSRL[Dap](Ac)-NH2) [E1Free]
binding to the extracellular domain of ObR (ObR extracellular domain): bound
peptide concentration of maximum observed ERK1/2 stimulation (ERK1/2): 200 nM
phosphorylation of ERK1/2 (ERK1/2; total ERK1/2 steady): increased
biodistribution [1]: localizes in the head, as well as the kidneys and liver
reduction of voluntary food intake compared to controls (aCSF) ([2]; 10 μg/hour for 7 hours icv, program-fed OVX ewes, P<0.05): approx. 25%
effect on voluntary food intake ([2]; icv infusion, OVX ewes, over the course of two days): voluntarily reduce the amount of food taken in
